Measured values: ChEMBL document CHEMBL1909046, “DrugMatrix in vitro pharmacology data”

Experiments:
Melanocortin receptor 5 = Melanocortin receptor 5 (Homo sapiens, UniProt P33032); assay type: cell membranes, HEK293, Membrane; settings: hek293; further: in other assays of this panel Not Active means under 50% inhibition at 10 µM
Estrogen receptor beta = Estrogen receptor beta (Homo sapiens, UniProt Q92731); settings: sf9; further: in other assays of this panel Not Active means under 50% inhibition at 10 µM
Mu-type opioid receptor = Mu-type opioid receptor (Homo sapiens, UniProt P35372); experiment: DRUGMATRIX: Opiate mu (OP3, MOP) radioligand binding (ligand: [3H] Diprenorphine); assay type: cell membranes, CHO-K1, Membrane; settings: cho-k1; Not Active = under 50% inhibition at 10 µM
[1] = biological target: Platelet-activating factor receptor (Homo sapiens, UniProt P25105); assay type: tissue-based; further: in other assays of this panel Not Active means under 50% inhibition at 10 µM
[2] = biological target: T1, Neuropeptide Y receptor type 1 (Homo sapiens, UniProt P25929); assay type: cell membranes, Membrane; settings: sk-n-mc; further: in other assays of this panel Not Active means under 50% inhibition at 10 µM
T1 sequence (P25929 whole entry): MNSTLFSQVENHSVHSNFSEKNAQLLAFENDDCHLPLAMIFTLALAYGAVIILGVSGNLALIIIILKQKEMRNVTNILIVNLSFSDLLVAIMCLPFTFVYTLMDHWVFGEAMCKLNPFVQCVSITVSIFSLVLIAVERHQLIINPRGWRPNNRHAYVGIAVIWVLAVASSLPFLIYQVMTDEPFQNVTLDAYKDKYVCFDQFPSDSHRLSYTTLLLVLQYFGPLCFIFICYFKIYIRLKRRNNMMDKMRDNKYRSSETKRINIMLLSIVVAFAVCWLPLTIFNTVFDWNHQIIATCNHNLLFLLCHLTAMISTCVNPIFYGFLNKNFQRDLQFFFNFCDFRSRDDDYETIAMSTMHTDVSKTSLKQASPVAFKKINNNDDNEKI

Cytochrome P450 2A6 = biological target: T2, Cytochrome P450 2A6 (Homo sapiens, UniProt P11509); settings: bti-tn-5b1-4; further: in other assays of this panel Not Active means under 50% inhibition at 10 µM
T2 sequence (P11509 whole entry): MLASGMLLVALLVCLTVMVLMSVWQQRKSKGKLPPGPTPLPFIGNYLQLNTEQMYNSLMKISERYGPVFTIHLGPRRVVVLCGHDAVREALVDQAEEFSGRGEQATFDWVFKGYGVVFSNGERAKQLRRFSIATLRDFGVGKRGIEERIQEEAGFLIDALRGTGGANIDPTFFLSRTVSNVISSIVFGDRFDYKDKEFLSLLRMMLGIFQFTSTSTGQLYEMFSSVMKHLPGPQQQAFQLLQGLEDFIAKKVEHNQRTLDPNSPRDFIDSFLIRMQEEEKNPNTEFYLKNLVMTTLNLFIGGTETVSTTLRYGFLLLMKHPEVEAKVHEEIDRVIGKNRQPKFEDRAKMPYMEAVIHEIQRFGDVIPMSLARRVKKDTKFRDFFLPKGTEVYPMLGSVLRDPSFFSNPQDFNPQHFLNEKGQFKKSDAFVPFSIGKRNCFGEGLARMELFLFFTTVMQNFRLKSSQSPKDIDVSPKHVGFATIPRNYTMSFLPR

[3] = biological target: Delta-type opioid receptor (Homo sapiens, UniProt P41143); assay type: cell membranes, HEK293, Membrane; settings: hek293; further: in other assays of this panel Not Active means under 50% inhibition at 10 µM
[4] = DRUGMATRIX: Phorbol Ester radioligand binding (ligand: [3H] PDBu); assay type: cell membranes, Mus musculus, ICR, Brain, Membrane; settings: Not Active = under 50% inhibition at 10 µM

Melanocortin receptor 5, sequence (P33032 whole entry): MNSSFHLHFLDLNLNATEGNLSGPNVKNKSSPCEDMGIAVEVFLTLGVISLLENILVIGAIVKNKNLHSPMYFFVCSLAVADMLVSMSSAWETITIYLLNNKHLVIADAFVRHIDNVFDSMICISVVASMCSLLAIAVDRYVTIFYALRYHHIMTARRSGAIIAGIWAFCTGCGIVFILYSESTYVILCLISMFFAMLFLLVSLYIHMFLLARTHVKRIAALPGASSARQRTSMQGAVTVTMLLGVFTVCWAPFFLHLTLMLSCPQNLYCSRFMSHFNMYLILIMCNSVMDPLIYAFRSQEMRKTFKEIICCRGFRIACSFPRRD
Platelet-activating factor receptor, sequence (P25105 whole entry): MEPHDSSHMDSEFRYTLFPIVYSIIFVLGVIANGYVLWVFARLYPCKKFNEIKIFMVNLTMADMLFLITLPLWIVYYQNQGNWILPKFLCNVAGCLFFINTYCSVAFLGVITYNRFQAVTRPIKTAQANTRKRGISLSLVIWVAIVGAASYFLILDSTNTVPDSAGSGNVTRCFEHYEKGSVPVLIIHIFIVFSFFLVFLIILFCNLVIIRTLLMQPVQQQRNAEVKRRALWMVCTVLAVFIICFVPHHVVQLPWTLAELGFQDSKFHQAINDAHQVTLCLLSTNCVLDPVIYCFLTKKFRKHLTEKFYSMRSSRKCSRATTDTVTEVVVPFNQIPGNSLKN
Estrogen receptor beta, sequence (Q92731 whole entry): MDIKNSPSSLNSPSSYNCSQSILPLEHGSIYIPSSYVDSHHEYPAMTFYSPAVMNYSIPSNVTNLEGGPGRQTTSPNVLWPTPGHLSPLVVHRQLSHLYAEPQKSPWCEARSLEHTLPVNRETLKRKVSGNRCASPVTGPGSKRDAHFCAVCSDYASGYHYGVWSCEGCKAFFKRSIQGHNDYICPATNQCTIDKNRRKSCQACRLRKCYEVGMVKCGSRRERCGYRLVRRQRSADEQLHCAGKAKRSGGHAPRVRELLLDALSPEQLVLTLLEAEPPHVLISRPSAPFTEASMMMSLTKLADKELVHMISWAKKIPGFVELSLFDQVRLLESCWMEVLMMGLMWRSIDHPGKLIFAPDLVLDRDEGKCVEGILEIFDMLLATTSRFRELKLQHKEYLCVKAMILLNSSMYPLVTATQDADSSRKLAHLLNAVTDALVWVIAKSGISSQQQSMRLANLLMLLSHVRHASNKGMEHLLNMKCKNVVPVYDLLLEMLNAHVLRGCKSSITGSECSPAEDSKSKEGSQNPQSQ
Delta-type opioid receptor, sequence (P41143 whole entry): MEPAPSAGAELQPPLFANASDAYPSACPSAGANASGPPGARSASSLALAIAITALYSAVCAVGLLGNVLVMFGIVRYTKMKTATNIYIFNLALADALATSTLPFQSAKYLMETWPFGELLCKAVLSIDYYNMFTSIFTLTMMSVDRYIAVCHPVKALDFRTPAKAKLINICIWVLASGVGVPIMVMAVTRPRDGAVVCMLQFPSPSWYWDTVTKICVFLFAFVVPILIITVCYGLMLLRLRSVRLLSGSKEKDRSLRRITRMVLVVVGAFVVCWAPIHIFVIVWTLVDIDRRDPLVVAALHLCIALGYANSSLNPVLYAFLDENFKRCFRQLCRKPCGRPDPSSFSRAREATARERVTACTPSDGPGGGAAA
Mu-type opioid receptor, sequence (P35372 whole entry): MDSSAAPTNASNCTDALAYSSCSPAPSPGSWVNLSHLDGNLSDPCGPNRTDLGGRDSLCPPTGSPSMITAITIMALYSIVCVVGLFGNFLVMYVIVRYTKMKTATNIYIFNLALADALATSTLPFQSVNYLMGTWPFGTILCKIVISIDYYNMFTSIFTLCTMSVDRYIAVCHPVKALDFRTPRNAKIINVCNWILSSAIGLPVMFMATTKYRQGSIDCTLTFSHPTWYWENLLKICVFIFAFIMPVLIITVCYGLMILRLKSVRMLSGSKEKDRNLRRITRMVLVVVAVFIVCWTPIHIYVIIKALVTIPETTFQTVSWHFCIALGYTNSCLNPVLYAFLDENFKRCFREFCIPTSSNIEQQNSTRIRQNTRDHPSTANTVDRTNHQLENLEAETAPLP

NC1=NC(=O)C(c2ccccc2)O1 (stereo not given) [PEMOLINE]
Not Active: IC50 (Melanocortin receptor 5) | IC50 (Estrogen receptor beta) | IC50 (Mu-type opioid receptor) | IC50 [1] | IC50 [2] | IC50 (Cytochrome P450 2A6) | Ki (Cytochrome P450 2A6) | IC50 [3] | IC50 [4] | Ki [4]

Nc1nc2c(ncn2CCC(CO)CO)c(=O)[nH]1 [PENCICLOVIR]
Not Active: IC50 (Melanocortin receptor 5) | IC50 (Estrogen receptor beta) | IC50 (Mu-type opioid receptor) | IC50 [1] | IC50 [2] | IC50 (Cytochrome P450 2A6) | Ki (Cytochrome P450 2A6) | IC50 [3] | IC50 [4] | Ki [4]

C=C(C)C1(O)OC(=O)C=C1OC (stereo not given) [PENICILLIC ACID]
Not Active: Ki (Melanocortin receptor 5) | IC50 (Estrogen receptor beta) | IC50 (Mu-type opioid receptor) | IC50 [1] | IC50 [2] | IC50 (Cytochrome P450 2A6) | Ki (Cytochrome P450 2A6) | IC50 [3] | IC50 [4] | Ki [4]

CCCN1C[C@H](CSC)C[C@@H]2c3cccc4[nH]cc(c34)C[C@H]21 [PERGOLIDE]
Not Active: IC50 (Melanocortin receptor 5) | IC50 (Estrogen receptor beta) | IC50 (Mu-type opioid receptor) | IC50 [1] | IC50 [2] | IC50 (Cytochrome P450 2A6) | Ki (Cytochrome P450 2A6) | IC50 [3] | IC50 [4] | Ki [4]

C1CCC(C(CC2CCCCN2)C2CCCCC2)CC1 (stereo not given) [PERHEXILINE]
Not Active: IC50 (Melanocortin receptor 5) | IC50 (Estrogen receptor beta) | IC50 (Mu-type opioid receptor) | IC50 [1] | IC50 [2] | IC50 (Cytochrome P450 2A6) | Ki (Cytochrome P450 2A6) | IC50 [3] | IC50 [4] | Ki [4]

CCOc1ccc(NC(C)=O)cc1 [PHENACETIN]
Not Active: IC50 (Melanocortin receptor 5) | IC50 (Estrogen receptor beta) | IC50 (Mu-type opioid receptor) | IC50 [1] | IC50 [2] | IC50 (Cytochrome P450 2A6) | Ki (Cytochrome P450 2A6) | IC50 [3] | IC50 [4] | Ki [4]

Cc1ccc(N(CC2=NCCN2)c2cccc(O)c2)cc1 [PHENTOLAMINE]
Not Active: IC50 (Melanocortin receptor 5) | IC50 (Estrogen receptor beta) | IC50 (Mu-type opioid receptor) | IC50 [1] | IC50 [2] | IC50 (Cytochrome P450 2A6) | Ki (Cytochrome P450 2A6) | IC50 [3] | IC50 [4] | Ki [4]

CNNCc1ccc(C(=O)NC(C)C)cc1 [PROCARBAZINE]
Not Active: IC50 (Melanocortin receptor 5) | IC50 (Estrogen receptor beta) | IC50 (Mu-type opioid receptor) | IC50 [1] | IC50 [2] | IC50 (Cytochrome P450 2A6) | Ki (Cytochrome P450 2A6) | IC50 [3] | IC50 [4] | Ki [4]

CN(C)CCCN1c2ccccc2Sc2ccccc21 [PROMAZINE]
Not Active: IC50 (Melanocortin receptor 5) | IC50 (Estrogen receptor beta) | IC50 (Mu-type opioid receptor) | IC50 [1] | IC50 [2] | IC50 (Cytochrome P450 2A6) | Ki (Cytochrome P450 2A6) | IC50 [3] | IC50 [4] | Ki [4]
